A word on the IC50: it is the midpoint of a concentration-inhibition curve. Low readings indicate inhibition by little substance, high ones a need for much substance.

Where only a bound is given, the exact number is not on record here.

The first assay deals with Cdk9/cyclinT1 (Homo sapiens, UniProt P50750). Briefly: Cdk9/cyclinT1 IMAP Protocol (fluorescence polarization kinase assay). The note with it: Cdk9_cyclinT1_IC50, Table V; generated using one of the two Cdk9/cyclinT1 assays (IMAP or Alpha Screen), not stated which; ATP 6 uM. A general note: In fluorescence polarisation assays a small probe gives low polarisation when free and higher when bound to something large.
Chain of Cdk9/cyclinT1 (P50750 whole entry): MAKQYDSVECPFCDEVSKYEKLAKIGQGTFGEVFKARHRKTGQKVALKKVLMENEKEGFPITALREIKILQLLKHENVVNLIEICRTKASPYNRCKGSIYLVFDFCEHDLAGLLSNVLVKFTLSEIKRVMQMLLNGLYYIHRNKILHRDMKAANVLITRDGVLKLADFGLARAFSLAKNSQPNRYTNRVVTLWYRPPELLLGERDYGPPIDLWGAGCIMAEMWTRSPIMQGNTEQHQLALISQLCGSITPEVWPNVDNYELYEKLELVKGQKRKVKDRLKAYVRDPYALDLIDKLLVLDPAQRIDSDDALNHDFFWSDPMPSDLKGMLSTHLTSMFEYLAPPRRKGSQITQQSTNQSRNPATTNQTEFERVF
Chain of Cdk9/cyclinT1 (O60563 whole entry partner): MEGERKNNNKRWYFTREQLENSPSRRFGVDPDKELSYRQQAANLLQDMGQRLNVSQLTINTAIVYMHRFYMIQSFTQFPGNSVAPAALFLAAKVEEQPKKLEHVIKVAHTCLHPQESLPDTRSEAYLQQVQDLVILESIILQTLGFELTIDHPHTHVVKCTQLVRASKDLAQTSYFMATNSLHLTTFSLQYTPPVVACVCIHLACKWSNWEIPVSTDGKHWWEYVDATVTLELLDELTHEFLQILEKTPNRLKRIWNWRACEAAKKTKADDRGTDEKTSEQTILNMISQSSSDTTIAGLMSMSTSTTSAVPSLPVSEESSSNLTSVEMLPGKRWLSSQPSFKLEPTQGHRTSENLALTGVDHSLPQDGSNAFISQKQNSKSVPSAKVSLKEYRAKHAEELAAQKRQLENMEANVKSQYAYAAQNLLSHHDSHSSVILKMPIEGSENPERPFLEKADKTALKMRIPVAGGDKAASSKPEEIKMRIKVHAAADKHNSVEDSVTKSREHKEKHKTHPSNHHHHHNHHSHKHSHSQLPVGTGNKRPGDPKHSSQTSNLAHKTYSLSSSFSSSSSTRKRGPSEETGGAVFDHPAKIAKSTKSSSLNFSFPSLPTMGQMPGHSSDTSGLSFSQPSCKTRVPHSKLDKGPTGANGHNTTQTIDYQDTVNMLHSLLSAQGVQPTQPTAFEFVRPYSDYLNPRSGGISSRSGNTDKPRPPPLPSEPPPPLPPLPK
For `O=C(Nc1cc(-c2nc(NCC3CCOCC3)ccc2F)c(Cl)cn1)C1CNCCOC1` (single isomer, unassigned) [Example 222], it took 25 nM to reach half-maximal inhibition (IC50).

Take `O=C(Nc1cc(-c2nc(NCC3CCOCC3)ccc2Cl)c(Cl)cn1)[C@H]1CCCNC1` [Example 98, (S)-Piperidine-3-carboxylic acid {3,5′-dichloro-6-[(tetrahydro-pyran-4-ylmethyl)-amino]-[2,4′]bipyridinyl-2′-yl}-amide]: it took 14 nM to reach half-maximal inhibition (IC50). Regarding `O=C(Nc1cc(-c2cccc(NC3CCOCC3)n2)c(Cl)cn1)[C@@H]1CCCNC1` [Example 33, (R)-Piperidine-3-carboxylic acid [5′-chloro-6-(tetrahydro-pyran-4-ylamino)-[2,4′]bipyridinyl-2′-yl]-amide], it took 76 nM to reach half-maximal inhibition (IC50). On to `CO[C@H]1CNC[C@@H]1C(=O)Nc1cc(-c2cccc(NCC3CCOC(C)(C)C3)n2)c(Cl)cn1` (stereo partly drawn) [Example 151, (3S,4R)-4-Methoxy-pyrrolidine-3-carboxylic acid {5′-chloro-6-[(2,2-dimethyl-tetrahydro-pyran-4-ylmethyl)-amino]-[2,4′]bipyridinyl-2′-yl}-amide], for which the IC50 is < 8 nM. With `C[C@H](O)CNc1cccc(-c2cc(NC(=O)[C@@H]3CCCNC3)ncc2Cl)n1` [Example 31, (R)-Piperidine-3-carboxylic acid [5′-chloro-6-((S)-2-hydroxy-propylamino)-[2,4′]bipyridinyl-2′-yl]-amide], half-maximal inhibition (IC50) required 46 nM. With `O=C(Nc1cc(-c2nc(NCC3CCOCC3)ccc2Cl)c(F)cn1)[C@@H]1CCCNC1` [Example 123, (R)-Piperidine-3-carboxylic acid {3-chloro-5′-fluoro-6-[(tetrahydro-pyran-4-ylmethyl)-amino]-[2,4′]bipyridinyl-2′-yl}-amide], the IC50 was < 8 nM. `C[C@@H]1CC(CNc2cccc(-c3cc(NC(=O)C4CNCCOC4)ncc3Cl)n2)C[C@H](C)O1` (stereo partly drawn) [Example 203, [1,4]Oxazepane-6-carboxylic acid {5′-chloro-6-[((2R,6S)-2,6-dimethyl-tetrahydro-pyran-4-ylmethyl)-amino]-[2,4′]bipyridinyl-2′-yl}-amide] showed an IC50 of 3 nM. For `O=C(Nc1cc(-c2cccc(NCC3CCOCC3)n2)c(Cl)cn1)C1CCCC1` [Example 65, Cyclopentanecarboxylic acid {5′-chloro-6-[(tetrahydro-pyran-4-ylmethyl)-amino]-[2,4′]bipyridinyl-2′-yl}-amide], the IC50 was < 8 nM. The same measure, in the same setting: under `CC[C@@H]1CC[C@@H](C(=O)Nc2cc(-c3ccc(F)c(NCC4CCOCC4)n3)c(Cl)cn2)CN1` (racemic) [Example 250, (3R,6R)-/(3S,6S)-6-Ethyl-piperidine-3-carboxylic acid {5′-chloro-5-fluoro-6-[(tetrahydro-pyran-4-ylmethyl)-amino]-[2,4′]bipyridinyl-2′-yl}-amide] stands 1 nM. Same read-out and setting: under `C[C@H](Nc1cccc(-c2cc(NC(=O)[C@@H]3CCCNC3)ncc2Cl)n1)C1CCOCC1` [Example 136, (R)-Piperidine-3-carboxylic acid {5′-chloro-6-[(S)-1-(tetrahydro-pyran-4-yl)-ethylamino]-[2,4′]bipyridinyl-2′-yl}-amide] stands 13 nM; under `O=C(Nc1cc(-c2cccc(NCC3CCOCC3)n2)c(Cl)cn1)C1CCCCNC1` (stereo not shown) [Example 193, Azepane-3-carboxylic acid {5′-chloro-6-[(tetrahydro-pyran-4-ylmethyl)-amino]-[2,4′]bipyridinyl-2′-yl}-amide], 2 nM. Same read-out and setting: the figure for `O=C(Nc1cc(-c2ccc(F)c(NCC3CCOCC3)n2)c(Cl)cn1)C1CNCCOC1` (stereo not shown) [Example 201, [1,4]Oxazepane-6-carboxylic acid {5′-chloro-5-fluoro-6-[(tetrahydro-pyran-4-ylmethyl)-amino]-[2,4′]bipyridinyl-2′-yl}-amide] is 1 nM. For `O=C(Nc1cc(-c2cccc(NCc3cccc(OC(F)F)c3)n2)c(Cl)cn1)[C@@H]1CCCNC1` [Example 55, (R)-Piperidine-3-carboxylic acid [5′-chloro-6-(3-difluoromethoxy-benzylamino)-[2,4′]bipyridinyl-2′-yl]-amide], the IC50 was < 8 nM. Compound `O=C(Nc1cc(-c2nc(NCC3CCOCC3)ccc2F)c(Cl)cn1)C1CNCCOC1` (single isomer, unassigned) [Example 223] returned an IC50 of 4 nM. The same measure, in the same setting: under `O=C(Nc1cc(-c2nc(NCC3CCOCC3)ccc2Cl)c(Cl)cn1)C1CNCCOC1` (single isomer, unassigned) [Example 214] stands 1 nM; under `O=C(Nc1cc(-c2cccc(NCC3CCCCC3)n2)c(Cl)cn1)[C@H]1CCCNC1` [Example 38, (S)-Piperidine-3-carboxylic acid [5′-chloro-6-(cyclohexylmethyl-amino)-[2,4′]bipyridinyl-2′-yl]-amide], 23 nM. Take `CC1(C)COCC(CNc2cccc(-c3cc(NC(=O)[C@@H]4CCCNC4)ncc3Cl)n2)O1` (stereo partly drawn) [Example 219, (R)-Piperidine-3-carboxylic acid {5′-chloro-6-[(6,6-dimethyl-[1,4]dioxan-2-ylmethyl)-amino]-[2,4′]bipyridinyl-2′-yl}-amide]: the IC50 was determined as 1 nM. Still for that read-out and setting: under `O=C(Nc1cc(-c2cccc(NCC3CCOCC3)n2)c(Cl)cn1)[C@@H]1CCCN1` [Example 58, (S)-Pyrrolidine-2-carboxylic acid {5′-chloro-6-[(tetrahydro-pyran-4-ylmethyl)-amino]-[2,4′]bipyridinyl-2′-yl}-amide] stands 116 nM; under `O=C(Nc1cc(-c2cccc(NCc3ccncc3)n2)c(Cl)cn1)[C@@H]1CCCNC1` [Example 54, (R)-Piperidine-3-carboxylic acid {5′-chloro-6-[(pyridin-4-ylmethyl)-amino]-[2,4′]bipyridinyl-2′-yl}-amide], < 8 nM; under `COC[C@@H]1CC[C@@H](C(=O)Nc2cc(-c3cccc(NCC4CCOCC4)n3)c(Cl)cn2)CN1` (single isomer, unassigned) [Example 235], 2 nM.

Take `O=C(Nc1cc(-c2cccc(NCC3COCCO3)n2)c(Cl)cn1)[C@@H]1CCCNC1` (stereo partly drawn) [Example 24, (R)-Piperidine-3-carboxylic acid {5′-chloro-6-[([1,4]dioxan-2-ylmethyl)-amino]-[2,4′]bipyridinyl-2′-yl}-amide]: the IC50 was < 8 nM.

For `O=C(Nc1cc(-c2cccc(NCC3CCOCC3)n2)c(Cl)cn1)[C@H]1CNC[C@@H](F)C1` [Example 177, (3R,5S)-5-Fluoro-piperidine-3-carboxylic acid {5′-chloro-6-[(tetrahydro-pyran-4-ylmethyl)-amino]-[2,4′]bipyridinyl-2′-yl}-amide], 5 nM corresponded to half-maximal inhibition (IC50).

Take `CO[C@H]1CNC[C@@H](C(=O)Nc2cc(-c3cccc(NCC4CCOCC4)n3)c(Cl)cn2)C1` (single isomer, unassigned) [Example 212]: half-maximal inhibition (IC50) required 171 nM. `COC[C@@H]1C[C@@H](C(=O)Nc2cc(-c3cccc(NCC4(C)CCOCC4)n3)c(Cl)cn2)CN1` [Example 239, (3R,5S)-5-Methoxymethyl-pyrrolidine-3-carboxylic acid {5′-chloro-6-[(4-methyl-tetrahydro-pyran-4-ylmethyl)-amino]-[2,4′]bipyridinyl-2′-yl}-amide]: the IC50 is 1 nM. Still for that read-out and setting: under `O=C(Nc1cc(-c2cccc(NCC3CCOCC3)n2)c(Cl)cn1)[C@@H]1CCCNC1` [Example 3, (R)-Piperidine-3-carboxylic acid {5′-chloro-6-[(tetrahydro-pyran-4-ylmethyl)-amino]-[2,4′]bipyridinyl-2′-yl}-amide] stands 1 nM. In the case of `CC1(C)CO[C@@H](CNc2cccc(-c3cc(NC(=O)[C@@H]4CCCNC4)ncc3Cl)n2)CO1` (single isomer, unassigned) [Example 231], the midpoint of inhibition, the IC50, lay at 1 nM. Still for that read-out and setting: under `CC(C)C(=O)Nc1cc(-c2cccc(NCC3CCOCC3)n2)c(Cl)cn1` [Example 70, N-{5′-Chloro-6-[(tetrahydro-pyran-4-ylmethyl)-amino]-[2,4]bipyridinyl-2′-yl}-isobutyramide] stands 11 nM.

As for `CC1(C)C[C@@H](CNc2ccc(Cl)c(-c3cc(NC(=O)[C@H]4CNCCO4)ncc3Cl)n2)CCO1` (single isomer, unassigned) [Example 155], it took 1 nM to reach half-maximal inhibition (IC50).

Consider `CC1(C)C[C@@H](CNc2nc(-c3cc(NC(=O)[C@@H]4CCCNC4)ncc3Cl)ccc2F)CCO1` (single isomer, unassigned) [Example 216], for which the IC50 came to 1 nM. Turning to `CC(C)S(=O)(=O)N1CCC[C@H](C(=O)Nc2cc(-c3nc(NCC4CCOCC4)ccc3Cl)c(Cl)cn2)C1` [Example 112, (S)-1-(Propane-2-sulfonyl)-piperidine-3-carboxylic acid {3,5′-dichloro-6-[(tetrahydro-pyran-4-ylmethyl)-amino]-[2,4′]bipyridinyl-2′-yl}-amide], the IC50 is < 8 nM. As for `COC(=O)N1CCC[C@H](C(=O)Nc2cc(-c3nc(NCC4CCOC(C)(C)C4)ccc3Cl)c(Cl)cn2)C1` (stereo partly drawn) [Example 140, (S)-3-{3,5′-Dichloro-6-[(2,2-dimethyl-tetrahydro-pyran-4-ylmethyl)-amino]-[2,4′]bipyridinyl-2′-ylcarbamoyl}-piperidine-1-carboxylic acid methyl ester], the IC50 is < 8 nM.

The assay is the same for the next values; noted with them: Cdk9_cyclinT1_IC50, generated using one of the two Cdk9/cyclinT1 assays (IMAP or Alpha Screen), not specified per value; ATP 6 uM.
In turn, `Cc1ncc(-c2cc(NC(=O)[C@@H]3CCCNC3)ncc2Cl)cc1NCC1CCOCC1` [Example 311, (R)-Piperidine-3-carboxylic acid {5′-chloro-6-methyl-5-[(tetrahydro-pyran-4-ylmethyl)-amino]-[3,4′]bipyridinyl-2′-yl}-amide] gave an IC50 of 103 nM. The compound `CC(C)(C)OC(=O)N1CCC[C@@H](C(=O)Nc2cc(-c3cnc(Cl)c(NCC4CCOCC4)c3)c(Cl)cn2)C1` [Example 303, (R)-3-{6,5′-Dichloro-5-[(tetrahydro-pyran-4-ylmethyl)-amino]-[3,4′]bipyridinyl-2′-ylcarbamoyl}-piperidine-1-carboxylic acid tert-butyl ester] returned a 50% inhibitory concentration (IC50) of 25 nM.

Regarding `COc1ccncc1-c1cc(NC(=O)[C@@H]2CCCNC2)ncc1Cl` [Example 306, (R)-Piperidine-3-carboxylic acid (5′-chloro-4-methoxy-[3,4′]bipyridinyl-2′-yl)-amide], the IC50 is 46 nM.
